Assay results: publication PMC9687798, “Atypical Substrates of the Organic Cation Transporter 1” (Biomolecules, 2022)
Several values for one entry are separate records, joined by “and”; a condition that tells them apart may be missing. Equal values may be shown once.

How the values were obtained:
human OCT1*1 (wild-type) [1] = target: T1, human OCT1*1 (wild-type) (Homo sapiens, UniProt O15245); experiment: Concentration-dependent uptake (transport kinetics) in HEK293 cells overexpressing OCT1 wild-type; settings: for Clint (±SEM): intrinsic clearance = ratio of Vmax and KM, OCT1 wild-type; for Vmax (±SEM): net uptake (OCT1 minus empty vector), HEK293, 0.1-1000 µM substrate, Michaelis–Menten; for OCT1 substrate classification from concentration-dependent uptake: good >5, poor 1–5, non-substrate <1 µL/mg protein/min or uptake not above empty vector
T1 sequence (O15245 1-554): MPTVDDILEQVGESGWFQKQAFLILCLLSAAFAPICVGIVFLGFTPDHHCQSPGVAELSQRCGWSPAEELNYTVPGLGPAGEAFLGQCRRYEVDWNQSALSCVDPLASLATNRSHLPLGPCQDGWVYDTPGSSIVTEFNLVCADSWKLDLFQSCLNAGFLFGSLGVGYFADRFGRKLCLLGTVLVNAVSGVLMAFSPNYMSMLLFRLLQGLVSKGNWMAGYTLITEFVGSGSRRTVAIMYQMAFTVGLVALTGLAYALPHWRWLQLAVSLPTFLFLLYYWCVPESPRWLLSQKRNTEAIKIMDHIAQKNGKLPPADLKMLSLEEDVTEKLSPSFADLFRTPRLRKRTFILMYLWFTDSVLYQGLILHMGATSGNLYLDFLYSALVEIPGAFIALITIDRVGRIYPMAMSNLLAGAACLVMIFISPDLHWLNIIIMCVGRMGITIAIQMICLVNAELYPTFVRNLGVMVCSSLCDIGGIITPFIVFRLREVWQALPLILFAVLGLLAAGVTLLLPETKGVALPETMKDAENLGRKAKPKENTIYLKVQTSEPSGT

[2] = target: T2, variant human OCT1*2 (M420del) (Homo sapiens, UniProt O15245, DEL420-420); experiment: Cellular uptake by HEK293 cells overexpressing OCT1*2; assay type: cell-based; settings: for uptake by OCT1*2 in comparison to OCT1*1: 1 µM substance; for uptake of prostaglandins by OCT1*2 in comparison to wild-type: 1, 10 and 100 µM, 120 s
T2 construct: expressed in transfected cells
T2 sequence (O15245 with tags, fused parts or gaps DEL420-420): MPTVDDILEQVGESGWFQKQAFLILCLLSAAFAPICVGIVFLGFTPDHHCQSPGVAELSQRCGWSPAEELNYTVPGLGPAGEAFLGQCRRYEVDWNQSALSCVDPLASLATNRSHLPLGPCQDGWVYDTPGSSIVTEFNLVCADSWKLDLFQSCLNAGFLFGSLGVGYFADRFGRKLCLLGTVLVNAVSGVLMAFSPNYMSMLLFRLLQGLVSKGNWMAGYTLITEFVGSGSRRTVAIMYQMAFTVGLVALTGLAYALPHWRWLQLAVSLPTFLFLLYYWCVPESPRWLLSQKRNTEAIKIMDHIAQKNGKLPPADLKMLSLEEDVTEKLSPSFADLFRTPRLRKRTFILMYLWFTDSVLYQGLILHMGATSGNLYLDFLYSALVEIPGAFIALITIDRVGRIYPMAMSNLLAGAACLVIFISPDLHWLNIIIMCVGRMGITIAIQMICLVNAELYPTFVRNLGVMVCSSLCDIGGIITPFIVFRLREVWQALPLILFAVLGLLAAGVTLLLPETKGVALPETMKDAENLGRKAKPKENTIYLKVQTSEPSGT
Description: The wild-type cell lines of OCT1 and OCT2, as well as the variant cell lines OCT1*2 and *3, were generated using the Flp-In system (Thermo Fisher Scientific, Darmstadt, Germany) as described in previous publications. The cell line overexpressing OCT3 was a kind gift from Dr. Koepsell and Dr. Gorbulev (University of Würzburg, Germany). Cells transfected with the empty pcDNA5/FRT vector were used for the transport experiments as a control cell line. All cells were cultured approximately up to passage 30.
Forty-eight hours before the transport experiments, 600,000 cells were plated on 12-well plates pre-coated with poly-D-lysine and incubated at 37 °C with 5% CO2. The prepared 12-well plate with cells was positioned on a heating plate pre-warmed to 37 °C. After removing the medium, the cells were washed with 37 °C HBSS+ (10 mM HEPES in Hank’s balanced salt solution, pH 7.4). Then, one pre-defined concentration of a substrate was added to each well. The incubation period was stopped by adding 2 mL of 4 °C HBSS+ and removing the cells from the heating plate. The cells were washed twice with 4 °C HBSS+. For cell lysis, the cells were incubated for 15 min with 500 µL of 80% acetonitrile (LGC Standards, Wesel, Germany), which contained a respective internal standard (Table 1).
For concentration-dependent transport, the cells were incubated with defined substrate concentrations (0.1, 1, 10, 30, 100, 300, 600, 1000 µM) for the respective pre-defined incubation times. […] The uptake by a transporter was normalised to the uptake by empty vector-transfected cells. […] The results of transport experiments were normalized to the total protein concentration per well. Total protein quantification was performed using a bicinchoninic acid assay with bovine serum albumin as standard.
The ratios of cellular uptake were calculated by dividing the total uptake of transporter-overexpressing cells by the total uptake into empty vector transfected cells. The concentration-dependent cellular net uptake was used for analysis of transport kinetics by subtracting for each substrate concentration the uptake of empty vector-transfected cells from the uptake of transporter-overexpressing cells. […] The intrinsic clearance Clint was expressed with the ratio of Vmax and KM.

human OCT1*1 (wild-type) [3] = target: T1, human OCT1*1 (wild-type); experiment: Cellular uptake ratio, OCT1-overexpressing HEK293 cells vs empty vector; assay type: cell-based
Summary of the method: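 Flp-In HEK293 cells stably expressing transporter, or empty pcDNA5/FRT vector as control, incubated at 37 °C in HBSS with 10 mM HEPES, pH 7.4, with substrate. Uptake quantified by LC-MS with internal standard and normalised to total protein. Ratio = total uptake in transporter cells divided by that in empty-vector cells.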

[4] = based on ratio uptake data at 1 µM
[5] = based on ratio uptake data at 100 µM (footnote *)

| Structure (SMILES) | Clint (±SEM) (human OCT1*1 (wild-type) [1]) | Clint (±SEM) (human OCT1*1 (wild-type) [1]; listed as emtricitabine) [µL/mg Protein/min] | uptake by OCT1*2 in comparison to OCT1*1 [2] | uptake ratio by OCT1 (normalised to empty vector) (human OCT1*1 (wild-type) [3]; 1 µM and 100 µM substance) | Clint (±SEM) (human OCT1*1 (wild-type) [1]; listed as levodopa) [µL/mg Protein/min] | Vmax (±SEM) (human OCT1*1 (wild-type) [1]) [pmol/mg Protein/min] | OCT1 substrate classification from concentration-dependent uptake (human OCT1*1 (wild-type) [1]) | Clint (±SEM) (human OCT1*1 (wild-type) [1]; listed as prostaglandin E2) [µL/mg Protein/min] | Clint (±SEM) (human OCT1*1 (wild-type) [1]; listed as prostaglandin F2α) [µL/mg Protein/min] | OCT1 transport category (human OCT1*1 (wild-type) [3]; [4]) | uptake of prostaglandins by OCT1*2 in comparison to wild-type [2] | uptake ratio of prostaglandins by OCT1 wild-type (human OCT1*1 (wild-type) [3]; 1, 10 and 100 µM, 120 s) | OCT1 transport category (human OCT1*1 (wild-type) [3]; [5]) |
| --- | --- | --- | --- | --- | --- | --- | --- | --- | --- | --- | --- | --- | --- |
| Nc1nc(=O)n([C@@H]2CS[C@H](CO)O2)cc1F [Emtricitabine, emtricitabine] | 6.15 ± 2.82 µL/mg Protein/min | 6.15 | reduction in uptake | around 4 | – | – | – | – | – | – | – | – | – |
| N=C(N)c1ccc(OCCCCCOc2ccc(C(=N)N)cc2)cc1 [Pentamidine, pentamidine] | 1.15 µL/mg Protein/min and 1.15 ± 1.75 µL/mg Protein/min | – | to a small extent | – | – | 143 ± 63.1 | poor substrate of OCT1 | – | – | +/− (poor transport with a Clint < 5 or ratio between 1–2 with statistical significance (p < 0.05)) | – | – | – |
| COc1cc(Cc2cnc(N)nc2N)cc(OC)c1OC [Trimethoprim, trimethoprim] | – | – | reduction in uptake | – | – | 300 ± 16.9 | – | – | – | + (good substrates of OCTs when the intrinsic clearance is between 5–15 or the ratio is 2–10) | – | – | – |
| Nc1ccn([C@H]2CC[C@@H](CO)O2)c(=O)n1 [Zalcitabine, zalcitabine] | 2.57 ± 0.65 µL/mg Protein/min | – | reduction in uptake | – | – | – | poor transport efficiency | – | – | + (good substrates of OCTs when the intrinsic clearance is between 5–15 or the ratio is 2–10) | – | – | – |

Now from value to compound, other results behind:

| Clint (±SEM) (human OCT1*1 (wild-type) [1]) | Clint (±SEM) (human OCT1*1 (wild-type) [1]; listed as emtricitabine) [µL/mg Protein/min] | uptake by OCT1*2 in comparison to OCT1*1 [2] | uptake ratio by OCT1 (normalised to empty vector) (human OCT1*1 (wild-type) [3]; 1 µM and 100 µM substance) | Clint (±SEM) (human OCT1*1 (wild-type) [1]; listed as levodopa) [µL/mg Protein/min] | Vmax (±SEM) (human OCT1*1 (wild-type) [1]) [pmol/mg Protein/min] | OCT1 substrate classification from concentration-dependent uptake (human OCT1*1 (wild-type) [1]) | Clint (±SEM) (human OCT1*1 (wild-type) [1]; listed as prostaglandin E2) [µL/mg Protein/min] | Clint (±SEM) (human OCT1*1 (wild-type) [1]; listed as prostaglandin F2α) [µL/mg Protein/min] | Structure (SMILES) | OCT1 transport category (human OCT1*1 (wild-type) [3]; [4]) | uptake of prostaglandins by OCT1*2 in comparison to wild-type [2] | uptake ratio of prostaglandins by OCT1 wild-type (human OCT1*1 (wild-type) [3]; 1, 10 and 100 µM, 120 s) | OCT1 transport category (human OCT1*1 (wild-type) [3]; [5]) |
| --- | --- | --- | --- | --- | --- | --- | --- | --- | --- | --- | --- | --- | --- |
| 13.8 ± 8.6 µL/mg Protein/min | – | – | – | 13.8 | 4993 ± 884 | – | – | – | N[C@@H](Cc1ccc(O)c(O)c1)C(=O)O [Levodopa, levodopa] | 0 (no transport by OCT1, OCT2, and OCT3 occurred (i.e., no kinetic parameters or uptake ratio <2 without significance)) | – | – | – |
| 3.50 ± 3.42 µL/mg Protein/min | – | – | – | – | 4119 | (poor) substrates of OCT1 | 3.5 | – | CCCCC[C@H](O)/C=C/[C@H]1[C@H](O)CC(=O)[C@@H]1C/C=C\CCCC(=O)O [Prostaglandin E2, prostaglandin E2] | – | reduced to the level of the control cell line | strongly increased uptake by OCT1 at higher concentrations | + (good substrates of OCTs when the intrinsic clearance is between 5–15 or the ratio is 2–10) |
| 1.40 ± 1.09 µL/mg Protein/min | – | – | – | – | 1007 | (poor) substrates of OCT1 | – | 1.4 | CCCCC[C@H](O)/C=C/[C@@H]1[C@@H](C/C=C\CCCC(=O)O)[C@@H](O)C[C@H]1O [Prostaglandin F2α, prostaglandin F2α] | – | reduced to the level of the control cell line | – | + (good substrates of OCTs when the intrinsic clearance is between 5–15 or the ratio is 2–10) |
